According to PubChem BioAssay (NCI):
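96-well plates; 48 h exposure; 5 concentrations. Endpoints by linear interpolation between flanking doses. Not reached: highest tested concentration assigned. GI50 is the concentration that inhibits growth by half. TGI is the concentration that stops growth completely.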 Where a SMILES comes first, the peptide text is derived from it. [ ]: non-standard residue; d: D form. The star is where a group is joined. ξ: configuration not given here. Propanoyl(3-(4-MeO-Ph)) = COc1ccc(CCC(=O)*)cc1; Thr(3ξ) = CC(O)[C@H](N)C(=O)O; dNMeL = CN[C@H](CC(C)C)C(=O)O; ξLac = CC(O)C(=O)O

Tests used:
Assay in all cases: growth of human tumour cells (NCI), 48 h
[1] = tested on: U251 CNS
[2] = tested on: A498 renal
[3] = tested on: OVCAR-4 ovarian
[4] = tested on: RXF 393 renal
[5] = tested on: HCT-15 colon
[6] = tested on: MDA-MB-435
[7] = tested on: SF-539 CNS
[8] = tested on: MALME-3M melanoma
[9] = tested on: HOP-92 NSCLC
[10] = tested on: COLO 205 colon

| SMILES | TGI [1] | TGI [2] | TGI [3] | TGI [4] | TGI [5] | TGI [6] | TGI [7] | TGI [8] | TGI [9] | TGI [10] | GI50 [9] |
| --- | --- | --- | --- | --- | --- | --- | --- | --- | --- | --- | --- |
| CCOc1cc2c(cc1O)CC[C@@H]1[C@@H]2CC[C@]2(C)C(OS(=O)OC3CC[C@@H]4[C@H]5CCc6cc(O)c(OCC)cc6[C@@H]5CC[C@@]34C)CC[C@@H]12 (stereo partly specified) | 1.4 µM | 36.6 µM | > 64.5 µM | > 20.5 µM | 15.3 µM | 0.548 µM | 1.85 µM | 13.4 µM | > 100 µM | > 53.7 µM |  |
| COc1cc(C2c3cc4c(cc3OC3(OC)COC(=O)C23)OCO4)cc(OC)c1OC (stereo unspecified) | > 66.3 µM | 2.38 µM | > 100 µM | 11.7 µM | 20.1 µM | 0.68 µM | 0.697 µM | > 100 µM | > 100 µM | 0.64 µM |  |
| O=C(CCc1ccc(O)c(O)c1)NCCc1ccc(O)c(O)c1 | 31 µM | > 100 µM | 33.7 µM | > 100 µM | > 100 µM | 31.8 µM | > 100 µM | > 100 µM | > 100 µM | > 100 µM |  |
| CCOC(=O)Cn1nnc2cc(Nc3nc4ccccc4nc3C(=O)OCC)ccc21 | > 100 µM | > 100 µM | > 100 µM | 64.8 µM | > 100 µM | > 100 µM | 58.6 µM | > 100 µM | 50 µM | > 100 µM |  |
| CCCCC1(N=[N+]=[N-])C(=O)C2C=CC=C3c4ccccc4N(C1=O)C32 (stereo unspecified) | > 31.6 µM | > 10 µM | > 31.6 µM | 23.7 µM | > 31.6 µM | > 31.6 µM | > 31.6 µM | > 31.6 µM | > 10 µM | > 31.6 µM |  |
| COc1ccc(-c2nnc(-c3ccncc3)o2)cc1 | > 100 µM | > 100 µM | > 100 µM | > 100 µM | > 100 µM | > 100 µM | > 100 µM | > 100 µM | > 100 µM | > 100 µM |  |
| CN(C)CCNC(=O)c1cccc2[nH]c(-c3ccncc3)nc12 | 9.82 µM | 19.8 µM | > 100 µM | 14.5 µM | 10.4 µM | 3.63 µM | 6.82 µM | 3.75 µM | 20.7 µM | 3.26 µM |  |
| CCOC(=O)c1nc2cc(C(F)(F)F)ccc2nc1Nc1ccc(F)cc1 | > 100 µM | > 100 µM | 86.1 µM | > 100 µM | > 100 µM | > 100 µM | 55.9 µM | > 100 µM | 49.6 µM | > 100 µM |  |
| Cc1[nH]c(=O)nc2nc3ccc(Cl)cc3c(NC(C)(CO)CO)c12 | > 100 µM | > 100 µM | > 100 µM | 88.8 µM | > 100 µM | > 100 µM | > 100 µM | > 100 µM | > 100 µM | > 100 µM |  |
| CC(=O)NC(C)c1ccc(N=NN2CCCC2)cc1 (stereo unspecified) | > 100 µM | > 100 µM | > 100 µM | > 100 µM | > 100 µM | > 100 µM | > 100 µM | > 100 µM | > 100 µM | > 100 µM |  |
| CSC1(SC)N2Cc3ccccc3N=C2C1(c1ccccc1)c1ccccc1 | > 58.9 µM | > 46.9 µM | > 100 µM | > 48.6 µM | > 100 µM | 16 µM | 31.6 µM | 27.6 µM | > 27.3 µM | 15.6 µM |  |
| CN(C)CCCNc1cnc2cc3ccccc3cc2n1 | > 100 µM | > 100 µM | 91.4 µM | 50.2 µM | 56 µM | 79.2 µM | 68.8 µM | 44.5 µM | 95.8 µM | 38.8 µM |  |
| COC(=O)[C@@H](NC(=O)[C@@H](CC(C)C)N(C)C(=O)[C@@H]1CCCN1C(=O)C(C)O)C(C)OC(=O)CCc1ccc(OC)cc1 (stereo partly specified) (H-[ξLac]P[dNMeL][Thr(3ξ)](Propanoyl(3-(4-MeO-Ph)))-OMe) | > 100 µM | > 100 µM | > 100 µM | > 100 µM | > 100 µM | > 100 µM | > 100 µM | > 100 µM | > 100 µM | > 100 µM |  |
| Cc1ccc(C(=O)C2=CN=C3C(=O)N(c4ccccc4)N(C)C3(C)C2=N)cc1 (stereo unspecified) | > 100 µM | > 100 µM | > 100 µM | > 100 µM | > 100 µM | > 100 µM | > 100 µM | > 100 µM | > 100 µM | > 100 µM |  |
| CNC(=O)c1ccccc1[S+]1c2cccc3cccc(c23)C(=O)N1C (stereo unspecified) | > 100 µM | > 100 µM | > 100 µM | > 100 µM | > 100 µM | > 100 µM | > 100 µM | > 100 µM | > 100 µM | > 100 µM |  |
| COc1cccc2c1-c1c(OC)cccc1SS2 | 46.8 µM | 27.4 µM | 90.5 µM | 63.6 µM | 33.3 µM | 15.1 µM | 33.4 µM | 52 µM | 36 µM | 56.6 µM |  |
| COC(=O)C(Cc1ccccc1)NC(=O)c1ccc(CNC(=S)NCc2cccc(CNC(=S)NCc3ccccc3)c2)cc1 (stereo unspecified) | > 62.5 µM | > 62.5 µM | > 62.5 µM | > 62.5 µM | > 62.5 µM | > 62.5 µM | > 62.5 µM | > 62.5 µM | > 62.5 µM | > 62.5 µM |  |
| CCCCCC(O)(CCCCC)CCCCCCCCC1=C(O)c2ccccc2C(=O)C1=O | 14.5 µM | 21.5 µM | > 48.8 µM | 29.9 µM | 15.6 µM | > 62.4 µM | 27.5 µM | 28.6 µM | 33.6 µM | 42.4 µM |  |

| SMILES | TGI [1] | TGI [2] | TGI [3] | TGI [4] | TGI [5] | TGI [6] | TGI [7] | TGI [8] | TGI [9] | TGI [10] | GI50 [9] |
| --- | --- | --- | --- | --- | --- | --- | --- | --- | --- | --- | --- |
| C=CCCC(On1c(-c2ccc(Cl)cc2)csc1=S)c1ccccc1 (stereo unspecified) | > 100 µM | > 100 µM | > 100 µM | > 100 µM | > 100 µM | > 100 µM | > 100 µM | 98.4 µM | > 100 µM | > 100 µM |  |
| CNc1ncnc2c1nnn2C | > 100 µM | > 100 µM | > 100 µM | > 100 µM | > 100 µM | > 100 µM | > 100 µM | > 100 µM | > 100 µM | > 100 µM |  |
| COc1ccc(N2C(N)=C(C#N)C(C#N)(C#N)C2c2cccc([N+](=O)[O-])c2)cc1 (stereo unspecified) | 31.7 µM | 29.9 µM | 32 µM | 23.6 µM | 30.3 µM | 31.9 µM | 28.9 µM | 16 µM | 26.2 µM | 24 µM |  |
| NNC(=O)CCC(NS(=O)(=O)c1ccc(Cl)cc1)C(=O)NN (stereo unspecified) | > 100 µM | > 100 µM | > 100 µM | > 100 µM | > 100 µM | > 100 µM | > 100 µM | > 100 µM | > 100 µM | > 100 µM |  |
| O=C(NN1C(=O)CSC1c1ccco1)c1ccncc1 (stereo unspecified) | > 100 µM | > 100 µM | > 100 µM | > 100 µM | > 100 µM | > 100 µM | > 100 µM | > 100 µM | > 100 µM | > 100 µM |  |
| NC(=O)C[C@H](NC(=O)C1(NC(=O)[C@H](Cc2ccc(CP(=O)(O)O)cc2)NC(=O)C(=O)O)CCCCC1)C(=O)NCCCc1cccc2ccccc12 | > 10 µM | > 10 µM | > 10 µM | > 10 µM | > 10 µM | > 10 µM | > 10 µM | > 10 µM | > 10 µM | > 10 µM |  |
| COc1cc2c(cc1OC(=O)c1cc3ccccc3[nH]1)N=C[C@@H]1CCCN1C2=O | 3.52 µM | 0.599 µM | 2.15 µM | 0.36 µM | > 34.2 µM | 1.19 µM | 1.17 µM | 2.24 µM | > 100 µM | 0.405 µM |  |
| CC(C)(C)OC(=O)N1Cc2cc(O)ccc2C[C@H]1C(=O)O | > 100 µM | > 100 µM | > 100 µM | > 100 µM | > 100 µM | > 100 µM | > 100 µM | > 100 µM | > 100 µM | > 100 µM |  |
| COc1cc(/C=c2/c3ccccc3n3c2cc(-c2ccccc2)[n+]3C)cc(OC)c1OC | 13.6 µM | > 58.3 µM | 8.61 µM | 6.18 µM | 18.5 µM | 6.19 µM | 8.64 µM | 5.67 µM | 12.3 µM | 3.22 µM |  |
| COc1ccc(NCc2cnc3nc(N)nc(N)c3c2C)cc1 | > 100 µM | > 100 µM | > 100 µM | > 100 µM | > 100 µM | > 100 µM | > 100 µM | > 100 µM | > 89.5 µM | > 100 µM |  |
| Cc1cc2c(cc1-c1cc3c(cc1C)C(C(C)C)=C(O)C(=O)/C3=C\Nc1c(C)n(C)n(-c3ccccc3)c1=O)/C(=C/Nc1c(C)n(C)n(-c3ccccc3)c1=O)C(=O)C(O)=C2C(C)C | > 100 µM | > 100 µM | > 100 µM | > 100 µM | > 100 µM | > 100 µM | > 100 µM | > 100 µM | > 100 µM | > 100 µM |  |
| NC(=O)c1ncn2c(=O)n(CCl)nnc12 | > 100 µM | > 100 µM | > 100 µM | > 100 µM | > 100 µM | > 100 µM | > 100 µM | > 100 µM | > 100 µM | > 100 µM |  |
| COP(=O)(OC)c1ccc(NCc2cc(O)ccc2O)cc1 | > 72.1 µM | > 100 µM | > 59 µM | 74.9 µM | 50.2 µM | 74.1 µM | 46.1 µM | 39.1 µM | 45.5 µM | > 64.6 µM |  |
| CCNc1cc2c3c(c1)CCCN3CCC2 | 24.7 µM | 65.3 µM | 32.3 µM | > 100 µM | 40.5 µM | 11.2 µM | 40.5 µM | 44.6 µM | 44.4 µM | 24.5 µM |  |
| O=C1c2ccccc2-c2nnc(-c3ccc(Cl)cc3)cc21 | > 10 µM | > 10 µM | > 10 µM | > 10 µM | > 10 µM | > 10 µM | > 10 µM | > 10 µM | > 10 µM | > 10 µM |  |
| O=[N+]([O-])c1ccc2nc(/C=C(\O)c3ccccc3)c(/C=C(\O)c3ccccc3)nc2c1 | 22.9 µM | > 86.2 µM | 32.5 µM | 38.2 µM | > 100 µM | > 56.2 µM | 22.8 µM | > 100 µM | 5.63 µM | > 100 µM | 0.195 µM |
| COc1ccc(S(=O)(=O)Nc2ccc(-c3csc(N4C(=O)/C(=C/c5ccccc5)N=C4c4ccccc4)n3)cc2)cc1Cl | 78 µM | 48.7 µM | 99.4 µM | 73.3 µM | 49.5 µM | > 100 µM | > 100 µM | > 100 µM | 69.7 µM | > 100 µM |  |
